Data reported in patent publication US20250064789A1, “KETOAMIDE DERIVATIVES AND PHARMACEUTICAL USES THEREOF” (priority 2022, published 2025).
Read-outs that look alike come from different tables or passages of the source.

Experiments:
[1] = in vivo; type: in vivo, ICR mice; settings: for MRT inf: read-out: MRTINF—obs
[2] = system: MERS-CoV; type: cell-based
[3] = target: human caspase 2 (Homo sapiens (Human), UniProt P42575); assay: Human protease biochemical activity assay: Caspase-2 inhibitor screening kit
Sequence of human caspase 2 (P42575 170-325): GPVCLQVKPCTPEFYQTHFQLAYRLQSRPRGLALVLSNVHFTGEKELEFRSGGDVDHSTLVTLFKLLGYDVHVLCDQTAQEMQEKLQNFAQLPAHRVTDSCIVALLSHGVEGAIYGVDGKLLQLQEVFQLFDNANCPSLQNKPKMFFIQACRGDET
Sequence of human caspase 2 (P42575 348-452): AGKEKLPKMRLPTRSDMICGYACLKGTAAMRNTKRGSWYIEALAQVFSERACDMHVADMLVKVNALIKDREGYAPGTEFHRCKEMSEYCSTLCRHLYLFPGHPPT
Method: (§1) The biochemical activity of compounds against human proteases was determined using Cathepsin K inhibitor screening kit (K150-100), Cathepsin B inhibitor screening kit (K147-100), Thrombin activity testing kit (K373-100), Caspase-2 inhibitor screening kit (K152-100), and Cathepsin D inhibitor screening kit (K148-100) according to the instructions of the kits (Biovision, USA). All experiments were carried out in triplicate. All experimental data were analyzed using GraphPad Prism software.

[4] = target: human cathepsin K (Homo sapiens (Human), UniProt P43235); assay: Human protease biochemical activity assay: Cathepsin K inhibitor screening kit
Sequence of human cathepsin K (P43235 115-329): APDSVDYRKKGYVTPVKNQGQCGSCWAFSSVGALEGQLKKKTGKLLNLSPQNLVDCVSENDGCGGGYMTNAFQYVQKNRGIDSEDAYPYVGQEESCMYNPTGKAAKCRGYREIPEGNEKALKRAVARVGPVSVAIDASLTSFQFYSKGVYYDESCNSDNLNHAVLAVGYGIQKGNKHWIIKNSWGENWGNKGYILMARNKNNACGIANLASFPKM
Method: as §1

[5] = system: SARS-CoV-2 Omicron (B.1.1.529) BA.2; assay: Antiviral activity by plaque method in Vero E6-TMPRSS2 cells: SARS-CoV-2 Omicron BA.2; type: cell-based
[6] = system: SARS-CoV-1; type: cell-based
[7] = Preliminary evaluation of in vivo safety (acute and general toxicity test); settings: p.o.; 1000 mg/kg single-dose; 800, 600, 400 mg/kg twice a day for 14 consecutive days
[8] = target: human cathepsin D (Homo sapiens (Human), UniProt P07339); assay: Human protease biochemical activity assay: Cathepsin D inhibitor screening kit
Sequence of human cathepsin D (P07339 65-412): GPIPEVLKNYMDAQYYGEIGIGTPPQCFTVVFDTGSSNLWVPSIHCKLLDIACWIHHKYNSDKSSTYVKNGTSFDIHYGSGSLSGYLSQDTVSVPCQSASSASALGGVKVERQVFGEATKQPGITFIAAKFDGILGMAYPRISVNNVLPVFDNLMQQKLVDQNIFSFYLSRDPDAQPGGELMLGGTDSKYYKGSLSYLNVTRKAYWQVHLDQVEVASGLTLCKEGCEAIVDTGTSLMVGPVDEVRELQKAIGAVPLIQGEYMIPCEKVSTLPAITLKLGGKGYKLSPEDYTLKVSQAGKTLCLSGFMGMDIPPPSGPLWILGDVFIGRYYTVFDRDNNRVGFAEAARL
Method: as §1

[9] = in vivo; type: in vivo, beagle dogs; settings: for MRT inf: read-out: MRTINF—obs
Method: Male ICR mice (6-8 weeks old, weighing 16-25 g), male beagle dogs (1-2 years old, weighing 9-12 kg), or male cynomolgus monkeys (6-7 years old, weighing 6-8 kg) were randomly divided into groups, with three animals for each group, and a series of test compounds were administered orally (p.o.) or intravenously (i.v.) according to the protocol in following Table 10.
The solution for gavage and intravenous administration was prepared with DMSO/HS15/PEG400/NaCl (5/3/40/52, […]). The administration time was recorded, and for each sample, approximately 0.20 mL of blood was collected by jugular vein blood collection or other appropriate methods at the pre-determined time points. The blood sample was anticoagulated with heparin sodium, and after collection, the blood was placed on ice. The sample was centrifuged to separate the plasma within 1 h (centrifugation conditions: 6800 g, 6 min, 2-8° C.). Plasma samples were stored in a −80° C. freezer before analysis. The grouping and blood collection time points are shown in Table 4, with 3 animals at each time point.

[10] = in vivo; settings: male, Sprague-Dawley, rat
[11] = target: hERG potassium ion channels (Homo sapiens (Human), UniProt Q12809); assay: hERG potassium current, whole cell patch clamp in HEK-293-hERG cells; settings: 30 μM
Sequence of hERG potassium ion channels (Q12809 whole entry, looked up): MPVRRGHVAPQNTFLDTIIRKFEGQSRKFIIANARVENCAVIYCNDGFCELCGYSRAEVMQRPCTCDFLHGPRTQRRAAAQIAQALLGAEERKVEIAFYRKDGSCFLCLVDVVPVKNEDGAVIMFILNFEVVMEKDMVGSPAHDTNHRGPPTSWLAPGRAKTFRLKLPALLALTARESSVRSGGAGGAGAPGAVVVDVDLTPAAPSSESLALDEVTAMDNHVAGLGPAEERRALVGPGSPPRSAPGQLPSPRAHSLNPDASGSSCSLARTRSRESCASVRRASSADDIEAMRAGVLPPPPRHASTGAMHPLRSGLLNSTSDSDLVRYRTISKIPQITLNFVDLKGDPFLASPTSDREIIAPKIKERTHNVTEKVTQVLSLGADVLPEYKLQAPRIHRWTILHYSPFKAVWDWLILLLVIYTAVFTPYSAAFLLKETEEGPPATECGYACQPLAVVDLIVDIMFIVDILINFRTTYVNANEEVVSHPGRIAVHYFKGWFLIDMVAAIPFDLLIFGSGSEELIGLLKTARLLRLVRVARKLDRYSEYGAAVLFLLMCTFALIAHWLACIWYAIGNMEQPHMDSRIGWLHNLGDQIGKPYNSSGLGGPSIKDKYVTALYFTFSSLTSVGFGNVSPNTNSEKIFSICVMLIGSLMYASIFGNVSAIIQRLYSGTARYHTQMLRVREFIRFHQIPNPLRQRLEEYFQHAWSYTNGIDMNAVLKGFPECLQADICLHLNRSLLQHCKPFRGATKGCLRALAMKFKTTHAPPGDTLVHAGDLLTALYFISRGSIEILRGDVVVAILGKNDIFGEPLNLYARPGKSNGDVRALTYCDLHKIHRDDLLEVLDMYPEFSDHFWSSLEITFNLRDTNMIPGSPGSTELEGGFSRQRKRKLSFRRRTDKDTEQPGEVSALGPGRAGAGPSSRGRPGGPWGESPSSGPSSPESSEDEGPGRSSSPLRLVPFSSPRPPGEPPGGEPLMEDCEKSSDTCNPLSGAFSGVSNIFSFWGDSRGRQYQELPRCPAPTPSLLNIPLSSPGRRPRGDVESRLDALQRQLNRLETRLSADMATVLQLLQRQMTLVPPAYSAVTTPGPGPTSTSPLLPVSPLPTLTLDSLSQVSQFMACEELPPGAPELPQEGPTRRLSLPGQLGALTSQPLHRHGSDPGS

[12] = target: human thrombin (Homo sapiens (Human), UniProt P00734); assay: Human protease biochemical activity assay: Thrombin activity testing kit
Method: as §1

[13] = system: SARS-CoV-2 Omicron (B.1.1.529) BA.5; assay: Antiviral activity by plaque method in Vero E6-TMPRSS2 cells: SARS-CoV-2 Omicron BA.5; type: cell-based
[14] = Metabolic stability using human liver microsomes; type: in vitro ADME; settings: pH 7.4, NADPH, 37° C., read-out: Human liver microsomes T1/2
[15] = target: human cathepsin B (Homo sapiens (Human), UniProt P07858); assay: Human protease biochemical activity assay: Cathepsin B inhibitor screening kit
Method: as §1

[16] = in vivo; type: in vivo, cynomolgus monkeys; settings: for MRT inf: read-out: MRTINF—obs
[17] = system: SARS-CoV-2 Omicron (B.1.1.529) BA.2; set-up: species or system K18-hACE2 transgenic mice; settings: mouse, in vivo
[18] = male, mouse, in vivo, iv, ICR mice, i.v. 1 mg/kg
[19] = male, dog, in vivo, po, beagle dogs, p.o. 10 mg/kg
[20] = male, cynomolgus monkey, in vivo, iv, cynomolgus monkeys, i.v. 1 mg/kg

COC[C@@H](NC(=O)C1CCCC(F)(F)C1)C(=O)N[C@H](Cc1ccccc1)C(=O)C(=O)NCc1nccs1 (stereo partly drawn) [Compound 398, N—((R)-1-(((R)-3,4-dioxo-1-phenyl-4-((thiazole-2-ylmethyl)amino)butan-2-yl)amino)-3-methoxy-1-oxopropan-2-yl)-3,3-difluorocyclohexane-1-formamide]
pharmacokinetic properties in mice (in words) ([1]; i.v. 1 mg/kg, p.o. 150 mg/kg): good pharmacokinetic properties | Tmax [1, 18]: 4.8 min | MRT inf [1, 18]: 10.2 ± 1.8 min | MRT inf ([1]; male, mouse, in vivo, po, ICR mice, p.o. 150 mg/kg): 217 ± 70.8 min | anti-viral activity, times higher than Nirmatrelvir (PF-07321332) [2]: 1.79 times | IC50 [3]: > 100 µM | IC50 [4]: > 100 µM | anti-viral activity, times higher than Nirmatrelvir (PF-07321332) [5]: 2.82 times | anti-viral activity, times higher than Nirmatrelvir (PF-07321332) [6]: 17.14 times | body weight and general condition during the administration period [7]: 1. During the administration period, no abnormal body | IC50 [8]: > 100 µM | Vssobs ([9]; beagle dogs, i.v. 1 mg/kg): 1.41964 ± 0.16026 L/kg | pharmacokinetic properties in beagle dogs (in words) ([9]; i.v. 1 mg/kg, p.o. 10 mg/kg): good pharmacokinetic properties | MRT inf ([9]; male, dog, in vivo, iv, beagle dogs, i.v. 1 mg/kg): 28.2 ± 3 min | Tmax [9, 19]: 60 min | MRT inf [9, 19]: 128 ± 10.8 min | MRT inf ([10]; iv, 1 mg/kg): 140 ± 13.2 min | Tmax ([10]; iv, 1 mg/kg): 4.8 min | MRT inf ([10]; po, 10 mg/kg): 396 ± 53.4 min | Tmax ([10]; po, 10 mg/kg): 240 ± 120 min | The average inhibition rate on hERG current [11]: 1.28% | IC50 [12]: > 100 µM | anti-viral activity, times higher than Nirmatrelvir (PF-07321332) [13]: 4.00 times | half-life at 1 µM [14]: 35.3 min | IC50 [15]: > 100 µM | Vssobs ([16]; cynomolgus monkeys, i.v. 1 mg/kg): 2.0658 ± 0.37439 L/kg | pharmacokinetic properties in cynomolgus monkeys (in words) ([16]; i.v. 1 mg/kg, p.o. 10 mg/kg): good pharmacokinetic properties | Tmax [16, 20]: 4.8 min | clearance [16, 20]: 2000 ± 257 mL/min/kg | MRT inf [16, 20]: 54 ± 10.8 min | MRT inf ([16]; male, cynomolgus monkey, in vivo, po, cynomolgus monkeys, p.o. 10 mg/kg): 283 ± 53.4 min | infectious viral load in the lungs by plaque assay (in words) [17]: effectively inhibited the production of infectious viral particles in the lungs | inhibition of viral subgenome mRNA (sgRNA) in the lungs [17]: 337 times | lung histopathology, H&E staining (in words) [17]: scattered inflammatory cell infiltration was occasionally observed | reduction of sgRNA copies in the lungs [17]: 12 times | reduction of sgRNA copy in the lungs compared with mice treated with Nirmatrelvir [17]: four times | reduction of vRNA copies in the lungs [17]: 16 times | reduction of vRNA copy in the lungs compared with mice treated with Nirmatrelvir [17]: four times | reduction of viral genomic RNA (vRNA) in the lungs [17]: 179 times
